Among the data in patent US8716284B2, “Adamantyl diamide derivatives and uses of same” (H. Lundbeck A/S, priority 2008, dated 2014) are Ki, Emax and minimal effective dose values, retold here.

In general, Ki refers to a measure of affinity in units of concentration, obtained from inhibition or displacement.

Experiment [1] deals with mGluR5 (Homo sapiens, UniProt P41594). The experiment can be described thus: Radioligand binding assay, [3H]MPEP filtration binding to membrane homogenates. As to conditions: 5 nM [3H]MPEP; Ki calculated from IC50 by Cheng-Prusoff. The procedure:
Binding assays were performed as described in [J. A. O'Brien et al. Mol. Pharmacol., 2003, 64, 731-740] with slight modifications. Briefly, after thawing, the membrane homogenates were resuspended in 50 mM Tris-HCl, 0.9% NaCl binding buffer at pH 7.4 to a final assay concentration of 40 μg protein/well for [^3H]methoxy-5-(2-pyridinylethynyl)pyridine ([^3H] MPEP) (American Radiolabeled Chemicals, Inc., St. Louis, Mo.) filtration binding. Incubations included 5 nM [^3H] MPEP, membranes and either buffer or varying concentrations of compound. Samples were incubated for 60 min at room temperature with shaking. Non-specific binding was defined with 10 μM MPEP. After incubation, samples were filtered over a GF/C filter (presoaked in 0.25% polyethyleneimine (PEI)) and then washed 4 times using a Tomtec® Harvester 96® Mach III cell harvester (Tomtec, Hamden, Conn.) with 0.5 mL ice-cold 50 mM Tris-HCl (pH 7.4).
IC50 values were derived from the inhibition curve and Ki values were calculated according to the Cheng and Prusoff equation of Ki=IC50/(1+[L]/Kd) described in [Y. Cheng and W. H. Prusoff Biochem. Pharmacol. 1973, 22, 3099-3108] where [L] is the concentration of radioligand and Kd is its dissociation constant at the receptor, derived from the saturation isotherm.

Experiment [2] addresses T1, rat metabotropic glutamate receptor 5 (mGluR5) (Rattus norvegicus, UniProt P31424).
T1 construct: expressed in transfected cells; host or cells: HEK 293
The experiment can be described thus: Calcium mobilization assay (FLIPR) for negative or positive allosteric activity, HEK 293 cells. It counts as cell-based. As to conditions: HEK293, negative allosteric modulation, inhibition of EC80 glutamate response; read-out: FLIPR maximum inhibition. The method in brief:
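Peak Fluo-4 calcium signal over 3 min at room temperature, minus basal, fitted by Hill equation, in stable rat mGluR5 HEK 293 cells (HBSS/HEPES pH 7.4, BSA, probenecid). Inhibition scored against EC80 glutamate, potentiation against EC20 glutamate, glutamate given with compound.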

The subject of experiment [3] is adult, male CD1 mice. The experiment can be described thus: Mouse marble burying (mMB) assay, anxiolytic effect. It counts as in vivo. As to conditions: SC injection, one-way ANOVA with Dunnett's test or t-test, read-out: Statistically significant Active Dose. The procedure: Examples 1, 2 and 58 were evaluated in vivo for anxiolytic effects using (1) mouse marble burying (mMB) methods similar to those described in [K. Njung'e, K. and S. L. Handley, Pharmacology, Biochemistry and Behavior, 1991, 38, 63-67] and (2) a modified Geller-Seifter conflict test described in [N. A. Moore et al. Behavioural Pharmacology. 1994, 5, 196-202].
More specifically for the mMB testing, adult, male CD1 mice (Charles River Laboratories (Kingston, N.Y.)), weighing 25 to 30 g, were used. All animals were group-housed in a standard colony room with a 12:12 light/dark cycle (lights on at 6:00 am) for at least one week prior to testing. Food and water were provided ad libitum. Animals were weighed, tail marked, and randomly assigned to treatment groups before testing.
For each test, sixty minutes after the injection of vehicle or test compound, or 30 min after injection of the positive control, buspirone, mice were individually placed into test cages containing 1.5 in of Aspen bedding (PWI brand) and two rows of 10 marbles (20 marbles per test cage total). Filter tops were used to cover each test cage. Thirty minutes later, mice were removed from test cages and returned to their home cages. The number of fully visible marbles (less than ⅔ covered with bedding) were counted and subtracted from 20 to arrive at the number of marbles buried. Twelve mice were tested per group.
Testing included multiple tests with each test performed to evaluate buspirone hydrochloride (BUS; Sigma Aldrich) (positive control) and/or a compound of the present invention. Each compound was dissolved immediately prior to testing in 20% beta-cyclodextrin (compound of the present invention) or distilled water (BUS) and administered at one or more doses (such as 3, 10, and/or 30 mg/kg) via subcutaneous (SC) or intraperitoneal (IP) injection at the indicated pretreatment times (i.e., 30, 60, or 120 min pretreatment). Doses were measured in mg drug (salt form) per kg body weight. Data was analyzed using one-way ANOVA with post-hoc Dunnett's test.

Chain of mGluR5 (P41594 21-1212): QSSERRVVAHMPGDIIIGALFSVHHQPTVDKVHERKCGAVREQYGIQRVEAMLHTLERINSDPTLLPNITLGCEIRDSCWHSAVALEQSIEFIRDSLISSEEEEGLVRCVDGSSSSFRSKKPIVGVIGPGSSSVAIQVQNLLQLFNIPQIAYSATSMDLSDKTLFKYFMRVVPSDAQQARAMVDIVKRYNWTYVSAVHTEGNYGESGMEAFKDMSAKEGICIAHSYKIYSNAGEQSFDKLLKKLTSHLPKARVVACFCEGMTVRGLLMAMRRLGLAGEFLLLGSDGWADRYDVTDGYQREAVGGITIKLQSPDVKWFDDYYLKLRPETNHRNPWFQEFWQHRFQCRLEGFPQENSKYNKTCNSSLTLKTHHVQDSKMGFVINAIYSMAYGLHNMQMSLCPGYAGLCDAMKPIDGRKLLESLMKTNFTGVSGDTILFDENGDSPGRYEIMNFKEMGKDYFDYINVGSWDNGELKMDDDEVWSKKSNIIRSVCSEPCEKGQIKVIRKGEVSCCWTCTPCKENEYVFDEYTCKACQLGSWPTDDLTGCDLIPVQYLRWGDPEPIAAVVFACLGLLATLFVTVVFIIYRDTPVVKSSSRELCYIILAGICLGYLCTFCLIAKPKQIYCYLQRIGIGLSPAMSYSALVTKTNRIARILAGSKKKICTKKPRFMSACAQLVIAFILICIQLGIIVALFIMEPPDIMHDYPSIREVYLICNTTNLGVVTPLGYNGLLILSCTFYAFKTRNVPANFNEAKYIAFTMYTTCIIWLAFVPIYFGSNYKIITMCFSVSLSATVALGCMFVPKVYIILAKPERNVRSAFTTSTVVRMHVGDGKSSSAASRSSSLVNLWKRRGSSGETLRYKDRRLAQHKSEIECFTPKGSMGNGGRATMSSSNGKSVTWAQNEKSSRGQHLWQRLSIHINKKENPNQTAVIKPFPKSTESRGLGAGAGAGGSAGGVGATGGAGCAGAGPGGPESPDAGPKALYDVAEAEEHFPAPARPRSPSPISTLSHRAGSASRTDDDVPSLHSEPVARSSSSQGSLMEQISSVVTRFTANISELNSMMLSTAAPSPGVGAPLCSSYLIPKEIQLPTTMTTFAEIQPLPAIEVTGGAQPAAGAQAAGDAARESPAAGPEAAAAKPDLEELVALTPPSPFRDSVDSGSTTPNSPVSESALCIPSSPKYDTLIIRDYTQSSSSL
T1 sequence (P31424 21-1171 isoform P31424-2 limits assumed): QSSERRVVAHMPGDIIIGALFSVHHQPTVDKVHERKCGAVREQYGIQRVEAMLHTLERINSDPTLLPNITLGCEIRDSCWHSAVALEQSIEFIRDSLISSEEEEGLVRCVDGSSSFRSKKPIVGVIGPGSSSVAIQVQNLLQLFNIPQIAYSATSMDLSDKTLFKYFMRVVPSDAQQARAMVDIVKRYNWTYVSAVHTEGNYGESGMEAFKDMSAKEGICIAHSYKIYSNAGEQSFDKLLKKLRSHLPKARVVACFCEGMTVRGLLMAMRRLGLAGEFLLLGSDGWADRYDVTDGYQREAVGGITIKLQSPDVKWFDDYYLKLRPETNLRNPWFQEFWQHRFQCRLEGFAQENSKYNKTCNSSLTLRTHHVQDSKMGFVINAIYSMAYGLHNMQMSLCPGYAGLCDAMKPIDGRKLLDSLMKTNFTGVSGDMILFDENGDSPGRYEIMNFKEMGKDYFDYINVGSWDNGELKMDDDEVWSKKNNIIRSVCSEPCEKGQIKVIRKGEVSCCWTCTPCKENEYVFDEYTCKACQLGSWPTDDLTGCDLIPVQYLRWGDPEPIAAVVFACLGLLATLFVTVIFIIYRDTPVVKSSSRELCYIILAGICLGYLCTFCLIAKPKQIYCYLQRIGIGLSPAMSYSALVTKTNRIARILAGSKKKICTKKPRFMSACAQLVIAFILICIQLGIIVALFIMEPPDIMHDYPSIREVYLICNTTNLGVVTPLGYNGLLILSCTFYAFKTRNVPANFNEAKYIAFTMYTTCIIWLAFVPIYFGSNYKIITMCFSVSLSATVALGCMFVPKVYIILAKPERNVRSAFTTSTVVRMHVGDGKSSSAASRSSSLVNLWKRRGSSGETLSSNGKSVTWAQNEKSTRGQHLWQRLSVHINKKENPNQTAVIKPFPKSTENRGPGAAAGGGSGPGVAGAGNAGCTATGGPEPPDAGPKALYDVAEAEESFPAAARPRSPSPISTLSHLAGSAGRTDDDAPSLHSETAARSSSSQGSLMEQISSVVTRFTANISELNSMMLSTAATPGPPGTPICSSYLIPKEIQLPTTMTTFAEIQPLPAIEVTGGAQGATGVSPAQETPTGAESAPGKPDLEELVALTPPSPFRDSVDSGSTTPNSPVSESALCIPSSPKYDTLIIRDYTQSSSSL

As to `Cn1ccc2cc(C(=O)NC34CC5CC(C3)CC(NC(=O)c3ccccn3)(C5)C4)ccc21` [Example 69, 1-Methyl-1H-indole-5-carboxylic acid {3-[(pyridine-2-carbonyl)-amino]-adamantan-1-yl}-amide], in experiment [1], the Ki is 6 to 700 nM. The Emax in experiment [2] was 63 to 99%.

`Cc1nccc(C(=O)NC23CC4CC(CC(NC(=O)c5cccc(F)c5)(C4)C2)C3)n1` [Example 183, 2-Methyl-pyrimidine-4-carboxylic acid [3-(3-fluoro-benzoylamino)-adamantan-1-yl]-amide]: the minimal effective dose in experiment [3] came to 10 mg/kg.

As to `O=C(NC12CC3CC(C1)CC(NC(=O)c1cnccn1)(C3)C2)c1cccc(F)c1` [Example 95, Pyrazine-2-carboxylic acid [3-(3-fluoro-benzoylamino)-adamantan-1-yl]-amide], the Ki in experiment [1] is 6 to 700 nM. Besides, the Emax in experiment [2] lay in the range of 63 to 99%.

As to `Cc1cncc(C(=O)NC23CC4CC(CC(NC(=O)c5ccc(F)cn5)(C4)C2)C3)n1` [Example 179, 6-Methyl-pyrazine-2-carboxylic acid {3-[(5-fluoro-pyridine-2-carbonyl)-amino]-adamantan-1-yl}-amide], the minimal effective dose in experiment [3] was determined as 10 mg/kg.

On to `Cc1cnc(C(=O)NC23CC4CC(CC(NC(=O)c5ccccn5)(C4)C2)C3)cn1` [Example 63, 5-Methyl-pyrazine-2-carboxylic acid {3-[(pyridine-2-carbonyl)-amino]-adamantan-1-yl}-amide], for which the minimal effective dose in experiment [3] is 30 mg/kg. Also, in experiment [2], the Emax fell in the range of 63 to 99%.

Take `O=C(NC12CC3CC(C1)CC(NC(=O)c1cnccn1)(C3)C2)c1ccc(F)cn1` [Example 185, Pyrazine-2-carboxylic acid {3-[(5-fluoro-pyridine-2-carbonyl)-amino]-adamantan-1-yl}-amide]: the minimal effective dose in experiment [3] was determined as 30 mg/kg. The Emax in experiment [2] is 63 to 99%.

`Cc1cncc(C(=O)NC23CC4CC(CC(NC(=O)c5cccc(F)c5)(C4)C2)C3)n1` [Example 96, 6-Methyl-pyrazine-2-carboxylic acid [3-(3-fluoro-benzoylamino)-adamantan-1-yl]-amide]: the Ki in experiment [1] was 6 to 700 nM. In addition, the Emax in experiment [2] lay within 63 to 99%.

`O=C(NC12CC3CC(C1)CC(NC(=O)c1ccccn1)(C3)C2)c1ccc2c(c1)CCN2` [Example 67, 2,3-Dihydro-1H-indole-5-carboxylic acid {3-[(pyridine-2-carbonyl)-amino]-adamantan-1-yl}-amide]: in experiment [1], the Ki was 6 to 700 nM. In addition, the Emax in experiment [2] was 63 to 99%.

On to `O=C(NC12CC3CC(C1)CC(NC(=O)c1cnccn1)(C3)C2)c1ccccn1` [Example 105, Pyrazine-2-carboxylic acid {3-[(pyridine-2-carbonyl)-amino]-adamantan-1-yl}-amide], for which the Ki in experiment [1] was 6 to 700 nM. Also, the minimal effective dose in experiment [3] was found to be 30 mg/kg. In experiment [2], the Emax fell in the range of 70 to 99%.

Regarding `Cn1ccc(C(=O)NC23CC4CC(C2)CC(NC(=O)c2nccs2)(C4)C3)n1` [Example 19, Thiazole-2-carboxylic acid {3-[(1-methyl-1H-pyrazole-3-carbonyl)-amino]-adamantan-1-yl}-amide], the Ki in experiment [1] was 6 to 700 nM. Moreover, in experiment [2], the Emax is 63 to 99%.

As for `Cc1cncc(C(=O)NC23CC4CC(C2)CC(NC(=O)c2cncc(C)n2)(C4)C3)n1` [Example 145, N,N′-(1,3-adamantylene)bis(6-methyl-pyrazine-2-carboxamide)], in experiment [3], the minimal effective dose was determined as 30 mg/kg. Besides, the Emax in experiment [2] lay within 70 to 99%.

As for `Cc1cccc(C(=O)NC23CC4CC(CC(NC(=O)c5ccccn5)(C4)C2)C3)n1` [Example 72, 6-Methyl-pyridine-2-carboxylic acid {3-[(pyridine-2-carbonyl)-amino]-adamantan-1-yl}-amide], the Ki in experiment [1] was 6 to 700 nM. In addition, the Emax in experiment [2] fell in the range of 63 to 99%.

Consider `Cc1nc2ccc(C(=O)NC34CC5CC(C3)CC(NC(=O)c3ccccn3)(C5)C4)cc2o1` [Example 65, 2-Methyl-benzoxazole-6-carboxylic acid {3-[(pyridine-2-carbonyl)-amino]-adamantan-1-yl}-amide], for which, in experiment [1], the Ki was 6 to 700 nM. In addition, the Emax in experiment [2] fell in the range of 63 to 99%.

`Cc1cccc(C(=O)NC23CC4CC(CC(NC(=O)c5cscn5)(C4)C2)C3)n1` [Example 120, 6-Methyl-pyridine-2-carboxylic acid {3-[(thiazole-4-carbonyl)-amino]-adamantan-1-yl}-amide]: the Ki in experiment [1] is 6 to 700 nM. The Emax in experiment [2] lay within 70 to 99%.

Turning to `Cc1nccc(C(=O)NC23CC4CC(CC(NC(=O)c5ccccn5)(C4)C2)C3)n1` [Example 107, 2-Methyl-pyrimidine-4-carboxylic acid {3-[(pyridine-2-carbonyl)-amino]-adamantan-1-yl}-amide], the Ki in experiment [1] is 6 to 700 nM. Also, the minimal effective dose in experiment [3] was determined as 10 mg/kg. Moreover, the Emax in experiment [2] is 70 to 99%.

On to `O=C(NC12CC3CC(C1)CC(NC(=O)c1ccncn1)(C3)C2)c1cccc(F)c1` [Example 93, Pyrimidine-4-carboxylic acid [3-(3-fluoro-benzoylamino)-adamantan-1-yl]-amide], for which, in experiment [1], the Ki was 6 to 700 nM. Also, the minimal effective dose in experiment [3] is 30 mg/kg. For the same molecule, in experiment [2], the Emax lay in the range of 63 to 99%.

With `Cc1cccc(C(=O)NC23CC4CC(C2)CC(NC(=O)c2ccnc(C)n2)(C4)C3)n1` [Example 119, 2-Methyl-pyrimidine-4-carboxylic acid {3-[(6-methyl-pyridine-2-carbonyl)-amino]-adamantan-1-yl}-amide], the Ki in experiment [1] was 6 to 700 nM. For the same molecule, the minimal effective dose in experiment [3] stood at 10 mg/kg. The Emax in experiment [2] was in the range of 70 to 99%.
